According to patent publication US4383114A, “Adenosine deaminase resistant antiviral purine arabinonucleosides” (priority 1981, dated 1983):
Converted amounts (≈) assume the structure as drawn. “And” between values parts separate entries of the source, which are not always exact repeats. Equal values may be shown once.

What was measured:
[1] = toxicity in uninfected (toxicity control) or treated mice; assay type: in vivo, Random-bred Swiss mice, female; details: for Avg. Body Wt. on Day 0 / Avg. Body Wt. on Day 7 / Avg. Body Wt. on Day 14 / Avg. Body Wt. on Day 21 / Mortality: No. Dead/Total No. of Mice / mortality at 504 h: uninfected toxicity controls; for mortality at 504 h: mouse, in vivo, ip
Procedure: River Breeding Laboratories, Inc.
cellulose (HPC) at four different
centrations so that a single daily
volume of 0.01 ml/gm of body
The drugs were administered once
for 7 days beginning 4 hours after […]

[2] = tested on: adenosine deaminase; assay: inhibition of enzymatic deamination of ara-A or adenosine; assay type: biochemical, calf; details: substrates ara-A or adenosine
[3] = tested on: calf intestinal mucosa adenosine deaminase (Sigma Chemical Company); assay: adenosine deaminase activity on Ara-A, Cyclaradine and Aristeromycin (Example 14); assay type: in vitro ADME; details: 1×10^-4 M, pH 7.5, 17.75 units/ml enzyme
Text: The deaminated products were further identified by thin-layer chromatography using authentic samples for reference.

[4] = tested on: vaccinia virus (VV) (Strain Lederle Chorioallantoic); assay: microbe, parasite or virus in culture; assay type: cell-based
[5] = tested on: HSV and VV; assay: organism not typed; assay type: cell-based
[6] = cytotoxicity, growing P-388 mouse lymphoid leukemia cells in presence of drug; details: p-388 cells
[7] = tested on: calf intestinal adenosine deaminase (type III, Sigma); assay: resistance to deamination by adenosine deaminase (Example 11); details: for deamination by adenosine deaminase: conditions under which ara-A is completely deaminated
[8] = tested on: herpes simplex virus (HSV) type 1 (strain HF); assay type: cell-based, herpes simplex virus type 1
[9] = tested on: adenosine deaminase; details: background statement; cited from earlier work

SMILES: Nc1ncnc2c1ncn2[C@@H]1C[C@H](CO)[C@@H](O)[C@@H]1O (relative stereo) [cyclaradine, 9-[α-(2α,3β-Dihydroxy-4α(hydroxymethyl)cyclopentyl)]adenine]
- weight loss or apparent toxicity ([1]; 750 mg/kg/day (equimolar to ara-A 755.3 mg/kg/day)): no significant weight loss or apparent toxicity
- lethal toxicity for uninfected animals ([1]; 900 mg/kg/day, qd 1-7, uninfected): apparently not lethally toxic
- Avg. Body Wt. on Day 0 ([1]; C-Ara-A 112.5 mg/kg/day): 21.8 gm
- Avg. Body Wt. on Day 7 ([1]; C-Ara-A 112.5 mg/kg/day): 24.5 gm
- Avg. Body Wt. on Day 14 ([1]; C-Ara-A 112.5 mg/kg/day): 26.5 gm
- Avg. Body Wt. on Day 21 ([1]; C-Ara-A 112.5 mg/kg/day): 28.5 gm
- Mortality: No. Dead/Total No. of Mice ([1]; C-Ara-A 112.5 mg/kg/day): 0/5
- Avg. Body Wt. on Day 0 ([1]; C-Ara-A 225 mg/kg/day): 21.8 gm
- Avg. Body Wt. on Day 7 ([1]; C-Ara-A 225 mg/kg/day): 24.4 gm
- Avg. Body Wt. on Day 14 ([1]; C-Ara-A 225 mg/kg/day): 26.8 gm
- Avg. Body Wt. on Day 21 ([1]; C-Ara-A 225 mg/kg/day): 29.3 gm
- Mortality: No. Dead/Total No. of Mice ([1]; C-Ara-A 225 mg/kg/day): 0/5
- Avg. Body Wt. on Day 0 ([1]; C-Ara-A 450 mg/kg/day): 21.6 gm
- Avg. Body Wt. on Day 7 ([1]; C-Ara-A 450 mg/kg/day): 22.6 gm
- Avg. Body Wt. on Day 14 ([1]; C-Ara-A 450 mg/kg/day): 25.9 gm
- Avg. Body Wt. on Day 21 ([1]; C-Ara-A 450 mg/kg/day): 28.3 gm
- Mortality: No. Dead/Total No. of Mice ([1]; C-Ara-A 450 mg/kg/day): 0/5
- Avg. Body Wt. on Day 0 ([1]; C-Ara-A 900 mg/kg/day): 21.8 gm
- Avg. Body Wt. on Day 7 ([1]; C-Ara-A 900 mg/kg/day): 22.5 gm
- Avg. Body Wt. on Day 14 ([1]; C-Ara-A 900 mg/kg/day): 25.3 gm
- Avg. Body Wt. on Day 21 ([1]; C-Ara-A 900 mg/kg/day): 28 gm
- Mortality: No. Dead/Total No. of Mice ([1]; C-Ara-A 900 mg/kg/day): 0/5
- toxicity of dose levels ([1]; cyclaradine 112.5 to 450 mg/kg/day, qd 1-7): non-toxic
- tolerability compared with ara-A ([1]; higher dose levels, mice): obviously better tolerated than ara-A
- mortality at 504 h ([1]; C-Ara-A 112.5 mg/kg/day): 0%
- mortality at 504 h ([1]; C-Ara-A 225 mg/kg/day): 0%
- mortality at 504 h ([1]; C-Ara-A 450 mg/kg/day): 0%
- mortality at 504 h ([1]; C-Ara-A 900 mg/kg/day): 0%
- inhibition of enzymatic deamination [2]: did not inhibit
- conversion to deaminated product ([3]; overnight incubation): no conversion to deaminated product was detected
- EC50 ([4]; Orthopoxvirus vaccinia, HEp-2, read-out: MED50 (minimum drug dose required for 50% inhibition of virus-induced cpe)): 9 µg/mL (≈ 33.9 µM)
- Virus Rating (VR) ([4]; vaccinia virus, HEp-2 cells, VR ≥ 1.0 definite, 0.5-0.9 marginal to moderate, < 0.5 no apparent antiviral activity): 1.5 and 1.7
- antiviral activity against HSV and VV [5]: highly significant antiviral activity
- EC50 ([5]; read-out: approximate MED50): ~9 µg/mL (≈ 33.9 µM)
- CC50 [6]: 10 µM
- deamination by adenosine deaminase [7]: no detectable deamination
- Virus Rating (VR) [8]: 2.2 and 3.5

SMILES: Nc1ncnc2c1ncn2[C@@H]1C[C@H](CO)[C@@H](O)[C@H]1O [Aristeromycin]
- conversion to deaminated product ([3]; 2 hours, 25° C): complete conversion

SMILES: Nc1ncnc2c1ncn2[C@@H]1O[C@H](CO)[C@@H](O)[C@@H]1O [ara-A, reference compound]
- mortality and weight loss ([1]; 755.3 mg/kg/day, qd 1-7): Significant mortality and severe weight loss
- Avg. Body Wt. on Day 0 ([1]; Ara-A 125 mg/kg/day): 21.7 gm
- Avg. Body Wt. on Day 7 ([1]; Ara-A 125 mg/kg/day): 25.4 gm
- Avg. Body Wt. on Day 14 ([1]; Ara-A 125 mg/kg/day): 27.3 gm
- Avg. Body Wt. on Day 21 ([1]; Ara-A 125 mg/kg/day): 29.5 gm
- Mortality: No. Dead/Total No. of Mice ([1]; Ara-A 125 mg/kg/day): 0/10
- Avg. Body Wt. on Day 0 ([1]; Ara-A 250 mg/kg/day): 21.7 gm
- Avg. Body Wt. on Day 7 ([1]; Ara-A 250 mg/kg/day): 25.1 gm
- Avg. Body Wt. on Day 14 ([1]; Ara-A 250 mg/kg/day): 26.6 gm
- Avg. Body Wt. on Day 21 ([1]; Ara-A 250 mg/kg/day): 29.1 gm
- Mortality: No. Dead/Total No. of Mice ([1]; Ara-A 250 mg/kg/day): 0/10
- toxicity of dose levels ([1]; ara-A 125 to 250 mg/kg/day, qd 1-7): non-toxic
- mortality at 504 h ([1]; Ara-A 125 mg/kg/day): 0%
- mortality at 504 h ([1]; Ara-A 250 mg/kg/day): 0%
- approx. LD10 ([1]; qd 1-7 schedule, mice): ~600 mg/kg/day
- conversion to deaminated product ([3]; 2 hours, 25° C): complete conversion
- CC50 [6]: 10 µM
- deamination by adenosine deaminase [9]: rapidly deaminated
- deamination rate [7]: 1 μmole/min/unit of enzyme
- deamination by adenosine deaminase [7]: completely deaminated
